Results from patent US11905282B1, “1-cyclopropyl-7-(4-((5-(2,4-dichlorobenzylideneamino)-2-thioxo-1,3,4-thiadiazol-3(2H)-yl)methyl)piperazin-1-yl)-6-fluoro-4-oxo-1,4-dihydroquinoline-3-carboxylic acid as an anti-inflammatory compound” (KING FAISAL UNIVERSITY, priority 2023, dated 2024).
Where two headings read alike, the source gives them in different places.

Target: Bovine Serum Albumin (Bos taurus, UniProt P02769)
Assay: Bovine Serum Albumin Assay (BSA), inhibition of heat-induced protein denaturation (in vitro anti-inflammatory activity)
Type: biochemical
Experimental: Bovine Serum Albumin Assay (BSA) In vitro-inflammatory activities of the tested samples were determined using a modified method of the BSA assay reported by Williams et al. BSA solution (0.4%, w/v) was prepared in Tris Buffered Saline. The pH was adjusted to 6.4 with glacial acetic acid. Different dilutions of 20, 40, 60, 80, and 100 μg/mL of 1-cyclopropyl-6-fluoro-4-oxo-7-(4-((5-oxo-2-phenyl-4-(quinolin-2-ylmethylene)-4,5-dihydro-1H-imidazol-1-yl)methyl)piperazin-1-yl)-1,4-dihydroquinoline-3-carboxylic acid in the stock solutions were added to test tubes containing 1 mL of 0.4%, w/v BSA buffer solution. Both negative (solvent) and positive (aspirin) controls were assayed in a similar manner. The solutions were then heated in a water bath at 72° C. for 10 minutes and cooled for 20 minutes under laboratory conditions. The turbidity of the solutions (level of protein precipitation) was measured at 660 nm in Spectrophotometer (V-770 UV-Visible/NIR Spectrophotometer). The percentage inhibition of precipitation (protein denaturation) was determined relative to the negative control using the following equation: [formula] [formula]

[1] = read-out: percentage inhibition of precipitation (protein denaturation)

Bovine Serum Albumin, sequence (P02769 25-607): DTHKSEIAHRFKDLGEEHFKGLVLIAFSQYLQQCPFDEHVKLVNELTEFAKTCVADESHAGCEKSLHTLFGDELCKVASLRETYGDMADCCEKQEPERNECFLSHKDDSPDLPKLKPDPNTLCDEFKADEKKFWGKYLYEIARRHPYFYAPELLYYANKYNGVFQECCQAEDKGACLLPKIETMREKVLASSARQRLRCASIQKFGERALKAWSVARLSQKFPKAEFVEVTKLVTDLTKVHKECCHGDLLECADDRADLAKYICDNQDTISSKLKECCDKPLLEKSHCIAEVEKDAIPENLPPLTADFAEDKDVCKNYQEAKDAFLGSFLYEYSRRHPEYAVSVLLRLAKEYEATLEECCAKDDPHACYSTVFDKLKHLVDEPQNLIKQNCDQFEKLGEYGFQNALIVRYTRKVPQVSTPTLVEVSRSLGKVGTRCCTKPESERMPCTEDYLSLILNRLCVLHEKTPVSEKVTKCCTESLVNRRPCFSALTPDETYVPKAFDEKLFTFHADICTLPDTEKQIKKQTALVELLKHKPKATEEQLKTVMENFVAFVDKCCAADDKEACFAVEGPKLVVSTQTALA

in vitro anti-inflammatory effect (BSA assay, result in words)	inhibition at 20 µg/mL [1]	inhibition at 40 µg/mL [1]	inhibition at 60 µg/mL [1]	inhibition at 80 µg/mL [1]	inhibition at 100 µg/mL [1]	inhibition at 100 µg/mL (concentration 100 μg/ml, 72° C. 10 minutes, turbidity at 660 nm, read-out: percentage inhibition of precipitation (protein denaturation))	Structure (SMILES)
considerable anti-inflammatory effect	68.2%	75.7%	79.1%	83.8%	87.6%	–	O=C(O)c1cn(C2CC2)c2cc(N3CCN(Cn4nc(/N=C/c5ccc(Cl)cc5Cl)sc4=S)CC3)c(F)cc2c1=O [Present compound, 1-cyclopropyl-7-(4-((5-(2,4-dichlorobenzylideneamino)-2-thioxo-1,3,4-thiadiazol-3(2H)-yl)methyl)piperazin-1-yl)-6-fluoro-4-oxo-1,4-dihydroquinoline-3-carboxylic acid]
–	–	–	–	–	–	90.7%	CC(=O)Oc1ccccc1C(=O)O [P.C, aspirin, reference compound]
